From patent US12606568B2, “SMARCA degraders and uses thereof” (Kymera Therapeutics, Inc., priority 2020, dated 2026)

Key:
Type in all cases: cell-based
[1] = target: T1, SMARCA4 (Homo sapiens, UniProt P51532); assay: SMARCA4 Western blot MV4-11 degradation; settings: for Dmax: MV4-11, MV4-11 cells, read-out: SMARCA4 MSD MV411 degradation 24 h: average Dmax %; for Dmax / DC50: 24 h; for DC50 / SMARCA4 MSD MV411 degradation 24 h: average Dmax %: MV4-11 cells; for DC50: read-out: SMARCA4 MSD MV411 degradation 24 h: Mean external-Abs DC50
T1 construct: SMARCA2 and SMARCA4 protein degradation in MV4-11 cells; endogenous in cells; host or cells: MV4-11
Method: Example 54. SMARCA2 and SMARCA 4 Western Blot MV4-11 Degradation
Cells were seeded into 6-well plates (MV4-11: 4×10^6 cells/well/1 ml) and 1 ml of 2× compound solution was added into the well to make the final concentration and the plates were mixed well and incubated for 24 hours (No cytotoxicity was observed). The cell were collected with media and spun at 3000 rpm for 5 minutes. The supernatant was aspirated and the well and the cells were washed with cold PBS once and combined for centrifugation again; the supernatant aspirated again. 200 ul pre-chilled RIPA lysis buffer (Boston BioProducts BP-115D) with protease/phosphatase inhibitor (Roche 05892791001/Roche 04906837001) was directly added into the tube to lyze the cells for 20 minutes on ice. The cell lysate were collected into EP tubes and spun at 13000 rpm for 20 minutes and 72 ul supernatant was transferred to a fresh EP tube containing 18 ul of 5× loading buffer (Beyotime Bio P0015) to make the loading samples. The samples were heated to 100° C. for 10 minutes and cooled to RT and microcentrifuged. 20 ul of samples were loaded onto SDS-PAGE gel (Novex, WG1402BOX) and the gel was run at 80 V for 20 minutes and 120 V for 1.5 hours. The samples were electrotransfer to a NC membrane using wet-transfer method with 250 mA for 2.5 hours. The membrane was blocked with LICOR blocking buffer (LI-COR, 927-50000) for 1 hour. The membrane was washed three times with TBST (CST #9997S), 5 minutes each. Incubation was performed with primary antibody prepared in blocking buffer with 0.1% Tween-20 (Solarbio, P8220) at 4° C. overnight (Anti-SMARCA2/BRM antibody (ab15597) 1:500; Anti-BRG1 antibody [EPR3912] (ab108318) 1:1000; Rabbit anti-Baf180 antibody [EPR15860] (Abcam, ab196022) 1:1000; mouse anti-beta-Actin (8H10D10) (CST #3700) 1:10000). The membrane was washed three times with TBST, 5 minutes each. Incubation with secondary antibody was performed for 1 hour at RT (anti-rabbit IgG (Licor, 926-32211) 1:5000; anti-mouse IgG (LI-COR, 926-68070) 1:5000). The membrane was washed three times with TBST, 5 minutes each and lastly the LiCOR was read.
(§1) The letter codes for SMARCA degradation potency (DC50) include: A (<100 nM), B (100-500 nM), C (501-1000 nM), and D (>1000 nM). The letter codes for the percentage of SMARCA degradation after 24 hours (Dmax %) include: A (>90% degradation), B (>70-90% degradation), C (50-70% degradation), and D (<50% degradation).

[2] = target: T2, SMARCA2 (Homo sapiens, UniProt P51531); assay: MSD SMARCA2 degradation in A549 cell line; design: endogenous in cells; settings: for Dmax: A549, A549 cells; for Dmax / DC50: 24 h; for DC50 / SMARCA2 MSD A549 degradation 24 h: Average Dmax %: A549 cells; for DC50: read-out: SMARCA2 MSD A549 degradation 24 h: Average external-Abs DC50
Method: Example 53. MSD SMARCA2 Degradation in A549 Cell Line
Cells were seeded into 96-well plates (A549 cells: 2×10^4 cells/well/100 ul media) abd incubated overnight. The next day, 200 nl compound were added into the intermediate plate with Echo (Labcyte 550) from source plate containing a 3-fold serial dilution from top concentration of 1 mM. The culture medium was changed with 80 ul of fresh medium and 80 ul of 2× compound solution was added into the well to make a final concentration of 1000 nM, 333.3 nM, 111.1 nM, 37.04 nM, 12.35 nM, 4.115 nM, 1.372 nM, 0.457 nM, 0.152 nM and 0 nM (DMSO). The wells were mixed and then incubated for 24 hours. The media was aspirated from the cultures and 60 ul pre-chilled PIPA lysis buffer (Boston BioProducts BP-115D) with protease/phosphatase inhibitor (Roche 05892791001/Roche 04906837001) was added into the well to lyze the cells for 20 minutes at 4° C. The MSD plate (L15XA) was coated with 40 ul cell lysate and incubated at 4° C. overnight. The next day, the plate was washed three times with TBST (CST #9997S), 150 ul/well. The MSD plates was blocked with 150 ul blocking buffer per well and shaked for 1 hr at R^†, 600 rpm. The blocking buffer was 3% Blocker A (MSD, R93BA-4) in TBST. The MSD plate was washed three times with 150 ul/well of TBST and 25 ul/well of detection antibody (Rabbit anti-SMARCA2/BRM antibody, 100 μg/ml, ab223735) was added at final concentration of 1 ug/mi diluted in 1% o Blocking buffer and shaken for 1 hour at R^†, 600 rpm. The MSD plate was washed three times with 150 ul/well of TBST and 25 ul/well of SULFO-TAG anti-rabbit antibody (MSD, R32AB-1) was added at final concentration of 1 μg/ml diluted in […] Blocking buffer and shaken for 1 hour at R^†, 600 rpm. The MSD plate was washed three times with 150 ul/well of TBST and 150 ul/well of 2×MSD reading buffer diluted from 4× (MSD, R92TC-2) with water was added. Lastly, the MSD instrument was read.
as §1, with “SMARCA2” for “SMARCA”, “% o)” for “%)”, “(>90% o” for “(>90%”, “(>70-90% o” for “(>70-90%”, “(50-70% o” for “(50-70%”

[3] = target: T2, SMARCA2; assay: SMARCA2 Western blot MV4-11 degradation; design: SMARCA2 and SMARCA4 protein degradation in MV4-11 cells; endogenous in cells; host or cells: MV4-11; settings: for Dmax: MV4-11, MV4-11 cells, read-out: SMARCA2 MSD MV411 degradation 24 h: average Dmax %; for Dmax / DC50: 24 h; for DC50 / SMARCA2 MSD MV411 degradation 24 h: average Dmax %: MV4-11 cells; for DC50: read-out: SMARCA2 MSD MV411 degradation 24 h: Mean external-Abs DC50

T2 sequence (P51531 whole entry): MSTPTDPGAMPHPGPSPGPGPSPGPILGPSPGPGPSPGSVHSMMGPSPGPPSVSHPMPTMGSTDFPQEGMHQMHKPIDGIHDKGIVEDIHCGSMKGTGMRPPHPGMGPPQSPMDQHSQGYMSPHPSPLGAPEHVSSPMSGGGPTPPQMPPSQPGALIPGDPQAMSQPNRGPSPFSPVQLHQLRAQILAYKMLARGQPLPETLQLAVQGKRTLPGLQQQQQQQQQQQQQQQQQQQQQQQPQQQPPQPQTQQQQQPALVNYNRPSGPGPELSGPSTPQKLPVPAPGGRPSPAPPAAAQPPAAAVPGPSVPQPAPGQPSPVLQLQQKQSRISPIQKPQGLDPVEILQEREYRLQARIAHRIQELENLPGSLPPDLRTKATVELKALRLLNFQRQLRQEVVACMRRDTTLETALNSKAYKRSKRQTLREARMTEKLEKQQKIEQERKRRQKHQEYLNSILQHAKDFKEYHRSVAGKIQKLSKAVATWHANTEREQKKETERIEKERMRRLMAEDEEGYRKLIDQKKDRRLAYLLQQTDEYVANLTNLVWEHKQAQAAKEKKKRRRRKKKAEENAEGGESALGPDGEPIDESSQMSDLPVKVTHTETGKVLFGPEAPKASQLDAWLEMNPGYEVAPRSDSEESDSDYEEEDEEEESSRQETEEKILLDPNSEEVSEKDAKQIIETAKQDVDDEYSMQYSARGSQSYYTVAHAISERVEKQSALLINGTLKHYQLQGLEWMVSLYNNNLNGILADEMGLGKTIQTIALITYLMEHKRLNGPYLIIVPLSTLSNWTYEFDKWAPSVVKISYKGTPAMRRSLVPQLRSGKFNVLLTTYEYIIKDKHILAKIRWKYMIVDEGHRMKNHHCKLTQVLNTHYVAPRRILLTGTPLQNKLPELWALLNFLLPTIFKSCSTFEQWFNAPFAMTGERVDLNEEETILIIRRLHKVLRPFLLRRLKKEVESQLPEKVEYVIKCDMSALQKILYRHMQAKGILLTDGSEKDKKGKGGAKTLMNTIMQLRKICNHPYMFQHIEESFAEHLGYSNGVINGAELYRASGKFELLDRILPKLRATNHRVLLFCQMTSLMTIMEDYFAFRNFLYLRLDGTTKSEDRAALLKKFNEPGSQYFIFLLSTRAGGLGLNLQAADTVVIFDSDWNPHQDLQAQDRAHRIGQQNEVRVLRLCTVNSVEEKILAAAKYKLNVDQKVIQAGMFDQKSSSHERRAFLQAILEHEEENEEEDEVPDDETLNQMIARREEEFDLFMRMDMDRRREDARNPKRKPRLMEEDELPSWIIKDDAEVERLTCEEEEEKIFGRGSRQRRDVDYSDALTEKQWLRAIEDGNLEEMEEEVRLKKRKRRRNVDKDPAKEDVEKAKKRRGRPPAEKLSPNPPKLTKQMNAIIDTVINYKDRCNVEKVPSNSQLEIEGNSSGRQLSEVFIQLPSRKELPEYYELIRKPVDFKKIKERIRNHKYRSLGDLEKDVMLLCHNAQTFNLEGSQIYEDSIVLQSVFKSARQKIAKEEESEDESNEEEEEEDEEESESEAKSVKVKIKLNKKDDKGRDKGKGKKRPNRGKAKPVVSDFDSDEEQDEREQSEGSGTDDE
T1 sequence (P51532 whole entry): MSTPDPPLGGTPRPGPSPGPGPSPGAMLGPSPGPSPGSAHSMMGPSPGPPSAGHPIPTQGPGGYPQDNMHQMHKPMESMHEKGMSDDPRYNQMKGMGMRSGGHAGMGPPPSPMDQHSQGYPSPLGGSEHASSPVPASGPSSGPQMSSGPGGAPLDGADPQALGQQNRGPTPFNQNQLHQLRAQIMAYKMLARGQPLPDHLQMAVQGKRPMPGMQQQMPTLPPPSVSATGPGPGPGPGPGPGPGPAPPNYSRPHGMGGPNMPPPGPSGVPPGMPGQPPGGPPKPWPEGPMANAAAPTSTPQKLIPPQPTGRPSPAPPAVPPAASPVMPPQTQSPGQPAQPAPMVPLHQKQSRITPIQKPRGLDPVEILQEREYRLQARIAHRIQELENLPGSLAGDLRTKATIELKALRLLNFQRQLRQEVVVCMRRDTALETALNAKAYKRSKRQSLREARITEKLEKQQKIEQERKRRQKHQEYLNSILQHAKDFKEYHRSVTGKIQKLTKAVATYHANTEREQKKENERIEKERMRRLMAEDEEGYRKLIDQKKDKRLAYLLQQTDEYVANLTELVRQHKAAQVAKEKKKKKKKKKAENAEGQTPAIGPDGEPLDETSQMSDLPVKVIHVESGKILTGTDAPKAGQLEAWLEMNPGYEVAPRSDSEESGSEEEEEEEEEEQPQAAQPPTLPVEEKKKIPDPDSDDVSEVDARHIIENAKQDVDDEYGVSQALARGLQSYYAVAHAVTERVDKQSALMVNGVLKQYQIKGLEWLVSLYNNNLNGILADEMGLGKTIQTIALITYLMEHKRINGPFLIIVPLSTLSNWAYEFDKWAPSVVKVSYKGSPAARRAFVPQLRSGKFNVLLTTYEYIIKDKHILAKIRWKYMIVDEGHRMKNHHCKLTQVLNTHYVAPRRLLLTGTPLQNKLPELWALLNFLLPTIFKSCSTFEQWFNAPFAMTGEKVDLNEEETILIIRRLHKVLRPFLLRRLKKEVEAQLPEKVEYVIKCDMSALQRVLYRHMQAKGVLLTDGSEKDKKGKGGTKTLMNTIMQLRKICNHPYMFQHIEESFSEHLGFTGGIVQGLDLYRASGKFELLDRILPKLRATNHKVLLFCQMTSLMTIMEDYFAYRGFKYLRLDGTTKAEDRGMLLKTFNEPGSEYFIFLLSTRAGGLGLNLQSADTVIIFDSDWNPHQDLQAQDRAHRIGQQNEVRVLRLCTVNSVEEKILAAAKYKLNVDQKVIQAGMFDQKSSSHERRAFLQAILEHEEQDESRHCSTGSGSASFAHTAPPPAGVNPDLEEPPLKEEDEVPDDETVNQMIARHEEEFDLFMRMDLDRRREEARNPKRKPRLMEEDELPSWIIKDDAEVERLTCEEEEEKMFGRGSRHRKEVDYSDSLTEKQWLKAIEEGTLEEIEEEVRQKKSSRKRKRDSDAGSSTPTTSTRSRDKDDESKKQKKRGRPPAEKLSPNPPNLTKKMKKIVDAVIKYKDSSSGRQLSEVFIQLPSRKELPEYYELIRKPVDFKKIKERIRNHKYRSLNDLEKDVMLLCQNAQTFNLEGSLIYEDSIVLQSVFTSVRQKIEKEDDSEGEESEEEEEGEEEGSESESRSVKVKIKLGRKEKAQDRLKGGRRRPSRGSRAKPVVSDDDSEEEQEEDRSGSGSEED

Cc1ncsc1-c1ccc(CNC(=O)[C@@H]2C[C@@H](O)CN2C(=O)[C@@H](NC(=O)C2CC3(C2)CC(N2CCC(COc4ccc(N5C6CCC5CN(c5cc(-c7ccccc7O)nnc5N)C6)cn4)CC2)C3)C(C)(C)C)cc1 (stereo partly drawn) [I-41, (2S,4R)-1-((2S)-2-(6-(4-(((5-(3-(3-amino-6-(2-hydroxyphenyl)pyridazin-4-yl)-3,8-diazabi-cyclo[3.2.1]octan-8-yl)pyridin-2-yl)oxy)methyl)piperidin-1-yl)spiro[3.3]heptane-2-carbox-amido)-3,3-dimethylbutanoyl)-4-hydroxy-N-(4-(4-methylthiazol-5-yl)benzyl)pyrrolidine-2-carboxamide]
Dmax [1]: > 90%
DC50 [1]: > 1000 nM
Dmax [2]: 50 to 70%
DC50 [2]: > 1000 nM
Dmax [3]: < 50%
DC50 [3]: > 1000 nM

Cc1ncsc1-c1ccc([C@H](C)NC(=O)[C@@H]2C[C@@H](O)CN2C(=O)[C@@H](NC(=O)[C@H]2CC3(C2)C[C@H](N2CCC(c4ccc(N5C6CCC5CN(c5cc(-c7ccccc7O)nnc5N)C6)cc4)CC2)C3)C(C)(C)C)cn1 (single isomer, unassigned) [I-6]
SMARCA4 MSD MV411 degradation 24 h: average Dmax % [1]: A (A (>90% degradation))
DC50 [1]: > 1000 nM
SMARCA2 MSD A549 degradation 24 h: Average Dmax % [2]: B (B (>70-90% o degradation))
DC50 [2]: > 1000 nM
SMARCA2 MSD MV411 degradation 24 h: average Dmax % [3]: C (C (50-70% degradation))
DC50 [3]: 501 to 1000 nM

Cc1ncsc1-c1ccc([C@H](C)NC(=O)[C@@H]2C[C@@H](O)CN2C(=O)[C@@H](NC(=O)[C@H]2CC3(C2)C[C@H](N2CCC(c4ccc(N5C6CCC5CN(c5cc(-c7ccccc7O)nnc5N)C6)cc4)CC2)C3)C(C)(C)C)cn1 (single isomer, unassigned) [I-5]
SMARCA4 MSD MV411 degradation 24 h: average Dmax % [1]: D (D (<50% degradation))
DC50 [1]: > 1000 nM
Dmax [2]: < 50%
DC50 [2]: > 1000 nM
Dmax [3]: < 50%
DC50 [3]: 100 to 500 nM

Cc1ncsc1-c1ccc(CNC(=O)[C@@H]2C[C@@H](O)CN2C(=O)C(c2cc(N3CCC(N4CCC(c5cnc(N6C7CCC6CN(c6cc(-c8ccccc8O)nnc6N)C7)nc5)CC4)CC3)no2)C(C)C)cc1 (mixture of isomers) [I-47, (2S,4R)-1-(2-(3-(4-(2-(3-(3-amino-6-(2-hydroxyphenyl)pyridazin-4-yl)-3,8-diazabicyclo[3.2.1]octan-8-yl)pyrimidin-5-yl)-[1,4′-bipiperidin]-1′-yl)isoxazol-5-yl)-3-methylbutanoyl)-4-hydroxy-N-(4-(4-methylthiazol-5-yl)benzyl)pyrrolidine-2-carboxamide]
Dmax [1]: > 90%
DC50 [1]: < 100 nM
Dmax [2]: > 90%
DC50 [2]: < 100 nM
Dmax [3]: > 90%
DC50 [3]: < 100 nM

Cc1nccn1-c1ccc(CNC(=O)[C@@H]2C[C@@H](O)CN2C(=O)[C@@H](NC(=O)[C@H]2CC3(C2)C[C@H](N2CCC(c4cnc(N5C6CCC5CN(c5cc(-c7ccccc7O)nnc5N)C6)nc4)CC2)C3)C(C)(C)C)cc1 (stereo partly drawn) [I-33, (2S,4R)-1-((2S)-2-(6-(4-(2-(3-(3-amino-6-(2-hydroxyphenyl)pyridazin-4-yl)-3,8-diazabicyclo[3.2.1]octan-8-yl)pyrimidin-5-yl)piperidin-1-yl)spiro[3.3]heptane-2-carboxamido)-3,3-dimethylbutanoyl)-4-hydroxy-N-(4-(2-methyl-1H-imidazol-1-yl)benzyl)pyrrolidine-2-carboxamide]
Dmax [1]: < 50%
DC50 [1]: > 1000 nM
Dmax [2]: < 50%
Dmax [3]: < 50%
DC50 [3]: 100 to 500 nM

Cc1ncsc1-c1ccc(CNC(=O)[C@@H]2C[C@@H](O)CN2C(=O)[C@@H](NC(=O)[C@H]2CC3(C2)C[C@H](N2CCC(c4ccc(N5C6CCC5CN(c5cc(-c7ccccc7O)nnc5N)C6)cc4)CC2)C3)C(C)(C)C)cn1 (stereo partly drawn) [I-27, (2S,4R)-1-((2S)-2-(6-(4-(4-(3-(3-amino-6-(2-hydroxyphenyl)pyridazin-4-yl)-3,8-diazabicyclo[3.2.1]octan-8-yl)phenyl)piperidin-1-yl)spiro[3.3]heptane-2-carboxamido)-3,3-dimethylbutanoyl)-4-hydroxy-N-((6-(4-methylthiazol-5-yl)pyridin-3-yl)methyl)pyrrolidine-2-carboxamide]
Dmax [1]: < 50%
DC50 [1]: > 1000 nM
Dmax [2]: < 50%
DC50 [2]: > 1000 nM
Dmax [3]: < 50%
DC50 [3]: 100 to 500 nM

Cc1ncsc1-c1ccc(CNC(=O)[C@@H]2C[C@@H](O)CN2C(=O)[C@@H](NC(=O)[C@H]2CC3(C2)C[C@H](N2CCC(Oc4ccc(N5C6CCC5CN(c5cc(-c7ccccc7O)nnc5N)C6)cn4)CC2)C3)C(C)(C)C)cc1 (some centres unmarked) [I-40]
SMARCA4 MSD MV411 degradation 24 h: average Dmax % [1]: A (A (>90% degradation))
DC50 [1]: > 1000 nM
SMARCA2 MSD A549 degradation 24 h: Average Dmax % [2]: B (B (>70-90% o degradation))
DC50 [2]: > 1000 nM
SMARCA2 MSD MV411 degradation 24 h: average Dmax % [3]: B (B (>70-90% degradation))
DC50 [3]: < 100 nM

Cc1ncsc1-c1ccc(CNC(=O)[C@@H]2C[C@@H](O)CN2C(=O)[C@@H](NC(=O)C2CC3(C2)CN(C2CCN(c4cnc(N5C6CCC5CN(c5cc(-c7ccccc7O)nnc5N)C6)nc4)CC2)C3)C(C)(C)C)cc1 [I-10, 2-(1-(2-(3-(3-amino-6-(2-hydroxyphenyl)pyridazin-4-yl)-3,8-diazabicyclo[3.2.1]octan-8-yl)pyrimidin-5-yl)piperidin-4-yl)-N—((S)-1-((2S,4R)-4-hydroxy-2-((4-(4-methylthiazol-5-yl)benzyl)carbamoyl)pyrrolidin-1-yl)-3,3-dimethyl-1-oxobutan-2-yl)-2-azaspiro[3.3]heptane-6-carboxamide]
Dmax [1]: < 50%
DC50 [1]: > 1000 nM
Dmax [2]: 70 to 90%
DC50 [2]: 501 to 1000 nM
Dmax [3]: 70 to 90%
DC50 [3]: < 100 nM
